Assay results reported in ChEMBL document CHEMBL1201862, “PubChem BioAssay data set” (2004).
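Tested at 5 concentrations; 48 h exposure; 96-well plates; endpoints linearly interpolated, else capped at highest concentration. GI50 is the concentration that inhibits growth by half.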 Activity calls are given as the source filed them. Rule as the data show it: active = GI50 up to about 1.1 µM and inactive = higher.

Columns and labels:
Assay in all cases: NCI anticancer screen, dose series, 48 h
UACC-257 = system: UACC-257
HCT-15 = system: HCT-15
CAKI-1 = system: CAKI-1
NCI-H226 = system: NCI-H226
HOP-18 = system: HOP-18
DMS-114 = system: DMS-114
RPMI-8226 = system: RPMI-8226
CCRF-CEM = system: CCRF-CEM
OVCAR-8 = system: OVCAR-8
NCI-H23 = system: NCI-H23
SNB-75 = system: SNB-75
IGROV-1 = system: IGROV-1
TK-10 = system: TK-10
KM12 = system: KM12
Malme-3M = system: Malme-3M
SNB-78 = system: SNB-78
HCC 2998 = system: HCC 2998
OVCAR-3 = system: OVCAR-3
SF-295 = system: SF-295
ACHN = system: ACHN
HT-29 = system: HT-29
SW-620 = system: SW-620
SK-MEL-28 = system: SK-MEL-28
M14 = system: M14
HOP-92 = system: HOP-92
SF-539 = system: SF-539
SNB-19 = system: SNB-19
A498 = system: A498
SK-OV-3 = system: SK-OV-3
M19-MEL = system: M19-MEL
HOP-62 = system: HOP-62
NCI-H460 = system: NCI-H460
SR = system: SR
MOLT-4 = system: MOLT-4
SF-268 = system: SF-268
UACC-62 = system: UACC-62
HCT-116 = system: HCT-116
XF498 = system: XF498
SK-MEL-2 = system: SK-MEL-2
HL-60 = system: HL-60
A549 = system: A549
SN12C = system: SN12C
DLD-1 = system: DLD-1
COLO 205 = system: COLO 205
LOX IMVI = system: LOX IMVI
OVCAR-5 = system: OVCAR-5
U-251 = system: U-251
SK-MEL-5 = system: SK-MEL-5
KM-20L2 = system: KM-20L2
OVCAR-4 = system: OVCAR-4
NCI-H522 = system: NCI-H522
EKVX = system: EKVX
K562 = system: K562
DMS-273 = system: DMS-273
LXFL 529 = system: LXFL 529
786-0 = system: 786-0
RXF 393 = system: RXF 393
UO-31 = system: UO-31
RXF 631 = system: RXF 631

Cc1cc(O)c(C=O)c(C)c1CCC1(C)C=Cc2cc(O)ccc2O1 (stereo not given)
GI50 (UACC-257): 18.7 µM (inactive) | GI50 (HCT-15): 22.9 µM | GI50 (CAKI-1): 19.2 µM (inactive) | GI50 (NCI-H226): 26.5 µM (inactive) | GI50 (HOP-18): 18.3 µM (inactive) | GI50 (DMS-114): 18.4 µM (inactive) | GI50 (RPMI-8226): 20.9 µM (inactive) | GI50 (CCRF-CEM): 17.1 µM (inactive) | GI50 (OVCAR-8): 17.1 µM (inactive) | GI50 (NCI-H23): 16.7 µM (inactive) | GI50 (SNB-75): 22.6 µM (inactive) | GI50 (IGROV-1): 26.2 µM (inactive) | GI50 (TK-10): 46.5 µM (inactive) | GI50 (KM12): 31.3 µM (inactive) | GI50 (Malme-3M): 24.8 µM (inactive) | GI50 (SNB-78): 21.2 µM (inactive) | GI50 (HCC 2998): 29.4 µM (inactive) | GI50 (OVCAR-3): 18.5 µM (inactive) | GI50 (SF-295): 23.4 µM (inactive) | GI50 (ACHN): 15.7 µM (inactive) | GI50 (HT-29): 31 µM (inactive) | GI50 (SW-620): 20.9 µM (inactive) | GI50 (SK-MEL-28): 22.7 µM (inactive) | GI50 (M14): 17.5 µM (inactive) | GI50 (HOP-92): 22.2 µM (inactive) | GI50 (SF-539): 18.3 µM (inactive) | GI50 (SNB-19): 38.9 µM (inactive) | GI50 (A498): 39.8 µM (inactive) | GI50 (SK-OV-3): 23.9 µM (inactive) | GI50 (M19-MEL): 27.7 µM (inactive) | GI50 (HOP-62): 20 µM (inactive) | GI50 (NCI-H460): 22.6 µM (inactive) | GI50 (SR): > 100 µM (inactive) | GI50 (MOLT-4): 18.4 µM (inactive) | GI50 (SF-268): 30.3 µM (inactive) | GI50 (UACC-62): 16.7 µM (inactive) | GI50 (HCT-116): 16.8 µM (inactive) | GI50 (XF498): 19.1 µM (inactive) | GI50 (SK-MEL-2): 24.1 µM (inactive) | GI50 (HL-60): 22.8 µM (inactive) | GI50 (A549): 35.9 µM (inactive) | GI50 (SN12C): 29.3 µM (inactive) | GI50 (DLD-1): 19.6 µM (inactive) | GI50 (COLO 205): 15.6 µM (inactive) | GI50 (LOX IMVI): 19.6 µM (inactive) | GI50 (OVCAR-5): 30.5 µM (inactive) | GI50 (U-251): 21.4 µM (inactive) | GI50 (SK-MEL-5): 25.2 µM (inactive) | GI50 (KM-20L2): 25.1 µM (inactive) | GI50 (OVCAR-4): 21.9 µM (inactive) | GI50 (NCI-H522): 14.8 µM (inactive) | GI50 (EKVX): 29.5 µM (inactive) | GI50 (K562): 24.3 µM (inactive) | GI50 (DMS-273): 21.5 µM (inactive) | GI50 (LXFL 529): 15.7 µM (inactive) | GI50 (786-0): 29.3 µM (inactive)

C#CC1(O)CC(c2ccccc2)N(C)C(c2ccccc2)C1 (stereo not given)
GI50 (UACC-257): > 100 µM (inactive) | GI50 (HCT-15): > 100 µM | GI50 (CAKI-1): > 100 µM (inactive) | GI50 (NCI-H226): > 100 µM (inactive) | GI50 (DMS-114): > 100 µM (inactive) | GI50 (CCRF-CEM): > 100 µM (inactive) | GI50 (OVCAR-8): > 100 µM (inactive) | GI50 (NCI-H23): > 100 µM (inactive) | GI50 (SNB-75): > 100 µM (inactive) | GI50 (IGROV-1): > 100 µM (inactive) | GI50 (TK-10): > 100 µM (inactive) | GI50 (KM12): > 100 µM (inactive) | GI50 (Malme-3M): > 100 µM (inactive) | GI50 (SNB-78): > 100 µM (inactive) | GI50 (HCC 2998): > 100 µM (inactive) | GI50 (OVCAR-3): > 100 µM (inactive) | GI50 (SF-295): > 100 µM (inactive) | GI50 (ACHN): > 100 µM (inactive) | GI50 (HT-29): > 100 µM (inactive) | GI50 (SW-620): > 100 µM (inactive) | GI50 (SK-MEL-28): > 100 µM (inactive) | GI50 (M14): > 100 µM (inactive) | GI50 (HOP-92): > 100 µM (inactive) | GI50 (RXF 393): > 100 µM (inactive) | GI50 (SF-539): > 100 µM (inactive) | GI50 (UO-31): 67.1 µM (inactive) | GI50 (SNB-19): > 100 µM (inactive) | GI50 (A498): > 100 µM (inactive) | GI50 (SK-OV-3): > 100 µM (inactive) | GI50 (M19-MEL): > 100 µM (inactive) | GI50 (HOP-62): > 100 µM (inactive) | GI50 (NCI-H460): > 100 µM (inactive) | GI50 (MOLT-4): > 100 µM (inactive) | GI50 (SF-268): > 100 µM (inactive) | GI50 (UACC-62): > 100 µM (inactive) | GI50 (HCT-116): 18.4 µM (inactive) | GI50 (SK-MEL-2): > 100 µM (inactive) | GI50 (HL-60): > 100 µM (inactive) | GI50 (A549): > 100 µM (inactive) | GI50 (SN12C): > 100 µM (inactive) | GI50 (COLO 205): > 100 µM (inactive) | GI50 (LOX IMVI): 51.5 µM (inactive) | GI50 (OVCAR-5): > 100 µM (inactive) | GI50 (RXF 631): > 100 µM (inactive) | GI50 (U-251): > 100 µM (inactive) | GI50 (SK-MEL-5): > 100 µM (inactive) | GI50 (KM-20L2): > 100 µM (inactive) | GI50 (OVCAR-4): > 100 µM (inactive) | GI50 (NCI-H522): > 100 µM (inactive) | GI50 (EKVX): > 100 µM (inactive) | GI50 (K562): 78.9 µM (inactive) | GI50 (DMS-273): > 100 µM (inactive) | GI50 (LXFL 529): > 100 µM (inactive) | GI50 (786-0): > 100 µM (inactive)
